Assay results taken from paper PMC8258866 (Journal of medicinal chemistry, 2020).

Key:
MCF7:CFR 3D spheroids = test: 3D-spheroid growth assay; type: cell-based; details: 100 nM; cell viability at day 9
MCF-7:CFR cells [1] = test: 3 h treatment and washout study in MCF-7:CFR cells; type: cell-based; details: media replaced after 3 h, viability after 5 days
MCF-7:CFR cells [2] = test: Cell growth assay in fulvestrant-resistant MCF-7:CFR 2D cultures; type: cell-based; details: MCF-7:CFR growth inhibition
BET family proteins = test: BROMOscan bromodomain profiling, BET family; type: binding; details: across BET family proteins
[3] = tested on: MCF-7:WS8, MCF-7:5C, MCF-7:TAM1, T47D, T47D/TDG, MCF-7:CPR, MCF-7:CFR cells; test: Cell growth assay across ER+ breast cancer cell lines; type: cell-based; details: read-out: IC50 across all cell lines
Kinetic solubility = type: physicochemical; details: 27 tested as HCl salt; for solubility: PBS, pH 7.4, solubility (PBS, pH 7.4)
Mouse pharmacokinetics = type: in vivo, CD1 mice; details: iv 5 mg/kg, mice, HCl salt
[4] = tested on: tamoxifen-resistant MCF-7:TAM1 cell-derived xenograft; test: MCF-7:TAM1 xenograft, monotherapy; type: in vivo
MCF-7:Tam1 tumors = test: MCF-7:TAM1 xenograft, combination with fulvestrant; type: in vivo, athymic nude mice; details: 4 weeks

Question: With `Cc1sc2c(c1C)C(c1ccc(Cl)cc1)=N[C@@H](CC(=O)OC(C)(C)C)c1nnc(C)n1-2` [Compound 1, reference compound] as the molecule, how does the “effect on MCF-7:CFR 3D spheroid growth/viability” value (MCF7:CFR 3D spheroids) read?
Answer: significantly inhibited growth

Question: What about the “efficacy after drug washout” value (MCF-7:CFR cells [1]) of the same molecule?
Answer: no significant efficacy at <300 nM

Question: Which results are given for `CCS(=O)(=O)Nc1cc(-c2cn(C)c3c(=O)[nH]ccc23)cc2c1ccn2C(C)(c1ccccn1)c1ccccn1` [Compound 27, N-(1-(1,1-Di(pyridin-2-yl)ethyl)-6-(1-methyl-7-oxo-6,7-dihydro-1H-pyrrolo[2,3-c]pyridin-3-yl)-1H-indol-4-yl)-ethanesulfonamide]?
Answer: cellular potency over JQ1 (MCF-7:CFR cells [2]): > 100 fold; Kd (BET family proteins): < 1 nM; effect on MCF-7:CFR 3D spheroid growth/viability (MCF7:CFR 3D spheroids): complete loss of spheroid viability; IC50 [3]: < 10 nM; efficacy after drug washout (MCF-7:CFR cells [1]): only slightly diminished; solubility (PBS, pH 7.4) (Kinetic solubility): 73.43 μM; solubility (Kinetic solubility): 73.4 µM; Cl (Mouse pharmacokinetics): 25.5 (mL/min)/kg; effect on animal body weight ([4]; 50 (mg/kg)/day po, 4 weeks): without any effect on animal body weight; overt signs of toxicity ([4]; once daily administration for 4 weeks): no overt signs of toxicity; tumor growth inhibition versus vehicle control (MCF-7:Tam1 tumors; 30 mg/kg po in combination with fulvestrant sc 1 (mg/mouse)/week): comparable and significant tumor growth inhibition

Question: With `CC(=O)[C@H]1CC[C@H]2[C@@H]3CCC4=CC(=O)CC[C@]4(C)[C@H]3CC[C@]12C` [progesterone, reference compound] as the molecule, how does the solubility (Kinetic solubility) read?
Answer: 22.4 µM

Question: For `CC/C(=C(\c1ccccc1)c1ccc(OCCN(C)C)cc1)c1ccccc1` [tamoxifen, reference compound], which “effect on tumor growth relative to vehicle control” value ([4]; 1.5 mg/mouse/day po, day 28) is on record?
Answer: no significant effect on tumor growth

Question: For `COc1nnc2ccc(N3CCC(c4ccc(OCCN5CCN(C)C(=O)[C@H]5C)cc4)CC3)nn12` [Compound 5, (3R)-4-[2-[4-[1-(3-Methoxy-[1,2,4]-triazolo[4,3-b]pyridazin-6-yl)-4-piperidyl]phenoxy]ethyl]-1,3-dimethyl-piperazin-2-one], which “effect on MCF-7:CFR 3D spheroid growth/viability” value (MCF7:CFR 3D spheroids) is on record?
Answer: significantly inhibited growth

Question: For `C[C@]12CC[C@@H]3c4ccc(O)cc4C[C@@H](CCCCCCCCC[S+]([O-])CCCC(F)(F)C(F)(F)F)[C@H]3[C@@H]1CC[C@@H]2O` (stereo partly shown) [fulvestrant], which “effect on MCF-7:CFR 3D spheroid growth/viability” value (MCF7:CFR 3D spheroids) is on record?
Answer: Neither 4-hydroxytamoxifen (4OHT) nor fulvestrant inhibited MCF-7:CFR cell growth

Question: Which “effect on MCF-7:CFR 3D spheroid growth/viability” value (MCF7:CFR 3D spheroids) does the source give for `CC/C(=C(\c1ccc(O)cc1)c1ccc(OCCN(C)C)cc1)c1ccccc1` [4-hydroxytamoxifen] here?
Answer: Neither 4-hydroxytamoxifen (4OHT) nor fulvestrant inhibited MCF-7:CFR cell growth

Question: With `CCNC(=O)C[C@@H]1N=C(c2ccc(Cl)cc2)c2cc(OC)ccc2-n2c(C)nnc21` [Compound 2, reference compound] as the molecule, how does the “tumor growth inhibition versus vehicle control” value (MCF-7:Tam1 tumors; 50 mg/kg po in combination with fulvestrant sc 1 (mg/mouse)/week) read?
Answer: comparable and significant tumor growth inhibition
